Source: the NIST ThermoML archive (doi:10.1016/j.jct.2018.12.032)

How the values were obtained:
[1] = for vapor or sublimation pressure: Transpiration method
[2] = Molar enthalpy of transition or fusion; settings: Crystal; DSC

c1ccc(-n2c3ccccc3c3ccccc32)cc1 [N-phenylcarbazole]
[1]
Settings	Glass transition temperature [°C]	Normal melting temperature [°C]	vapor or sublimation pressure [kPa]
330.1 K, Crystal	–	–	9.2e-06
336.4 K, Crystal	–	–	2.01e-05
343.5 K, Crystal	–	–	4.67e-05
349.2 K, Crystal	–	–	9.26e-05
350 K, Metastable liquid	–	–	0.000128
356.1 K, Crystal	–	–	0.00019
356.1 K, Metastable liquid	–	–	0.000224
362.8 K, Crystal	–	–	0.0003947
362.8 K, Metastable liquid	–	–	0.000395
368.5 K, Metastable liquid	–	–	0.000657
372.4 K, Liquid	–	–	0.000913
377.3 K, Liquid	–	–	0.001342
Crystal, DTA	–	94.8	–
Glass, DSC	-18.3	–	–

Settings	Molar enthalpy of transition or fusion [kcal/mol]
[2]	4.64
